This is an account of results in patent EP2423181A1, “Multitarget substituted biphenyl diol derivatives” (PROUS INSTITUTE FOR BIOMEDICAL RESEARCH S.A., priority 2010, dated 2012).

The subject of one series is 5-HT Uptake. Put plainly: Serotonin uptake inhibition in brain synaptosomes. Format: biochemical, rat. On the procedure:
Inhibition of serotonin uptake has been tested in rat brain synaptosomes using [^3H]serotonin (0.2 µCi/ml) after 15 min of incubation at 37°C and measuring the incorporation of [^3H]serotonin into synaptosomes by scintillation counting (Perovic, S. and Muller, W.E.G. Arzneim-Forsch. Drug Res., 1995, 45, 1145-1148).

The next series deals with T1, SERT (Homo sapiens, UniProt P31645).
T1 construct: expressed in transfected cells; host or cells: CHO cells
Put plainly: Serotonin transporter binding ([3H]imipramine). As for the experimental part:
(§1) Serotonin transporter (SERT) inhibitors increase extracellular concentrations of serotonin (5-HT) and amplify signals sent by serotonin neurons. Agents that block SERT have been studied for the treatment of several diseases including depression and anxiety. Inhibitors of monoamine transporters have been tested for NET (Pacholczyk, T. et al. Nature, 1991, 350, 350-354) and SERT (Tatsumi, M. et al. Eur J Pharmacol, 1999, 368, 277-283). Norepinephrine transport was assessed in human recombinant CHO cells using [^3H]nisoxetine as a ligand at 1 nM after 60 min of incubation at 22°C, and a scintillation method as a method of detection. Serotonine transport was assessed in human recombinant CHO cells using [^3H]imipramine as a ligand at 2 nM after 60 min of incubation at 22°C, and a scintillation counting as a method of detection.

For another series, the target named is T2, NET (Homo sapiens, UniProt P23975).
T2 construct: expressed in transfected cells; host or cells: CHO cells
As to the kind of experiment: Norepinephrine transporter binding ([3H]nisoxetine). As for the experimental part:
as §1

The target of another series is T3, 5-HT2A receptor (Homo sapiens, UniProt P28223).
T3 construct: expressed in transfected cells; host or cells: HEK-293 cells
Put plainly: 5-HT2A receptor binding ([3H]ketanserin). Conditions: 5-HT2A binding. On the procedure:
The 5-HT2A receptor belongs to the G-protein-coupled receptor (GPCR) target class linked to anxiety and depression. Using human recombinant HEK-293 cells, the binding of compounds of formula (I) to this receptor was determined. The ligand used was [^3H]ketanserin at 0.5 nM and the quantification of the activity was assessed by scintillation counting after 60 min at 22°C (Bonhaus, et al. Br J Pharmacol, 1995, 115, 622-628). Table 16. Inhibition of 5-HT2A binding

A further series deals with NE Uptake. Put plainly: Norepinephrine uptake inhibition. Format: biochemical.
A short description of series [1]: Maximum Tolerated Dose after acute administration. The note with it: mouse, in vivo, ip, mice. On the procedure:
The Maximum Tolerated Dose (MTD) in mice was determined for selected compounds. The protocol of the studies was in accordance with the standard guidelines for drug development: • (htp://dtp.nci.nih.gov/branches/btb/acute tox.html). Table 10. Maximum Tolerated Doses in mice after acute i.p. administration

The target of another series is T4, Src (Homo sapiens, UniProt P12931).
T4 construct: host or cells: Sf9 insect cells
As to the kind of experiment: Src protein tyrosine kinase inhibition (ELISA of Poly[Glu:Tyr-P]). Conditions: Src, at 10 µM; read-out: % Inhibition. Format: biochemical. On the procedure: Src protein tyrosine kinase activity was assessed in human recombinant insect Sf9 cells using as a substrate Poly(Glu:Tyr) at 10 µg/mL with preincubation and incubation times of 15 and 5 min, respectively, at 22°C in 50 mM HEPES, pH 7.4, 1 mM DTT, 20 mM MgCl2 and 0.2 mM Na3VO4. An ELISA quantitation method of Poly[Glu:Tyr-P] was employed (Farley, K et al. Anal Biochem, 1992, 203, 151-157). Table 4. Inhibition of Src at 10 µM
A general note: In an ELISA, binding on a coated surface is turned into a signal by an enzyme label.

A further series deals with tumor melanoma B16-FO. As to the kind of experiment: Tumor cell proliferation assay (alamarBlue). The note with it: Mus musculus; tumor melanoma B16-FO; read-out: IC50. Format: cell-based, murine. On the procedure: (§2) Changes in cell proliferation were detected based on the ability of viable cells to cause alamarBlue® to change its oxidized (non-fluorescent, blue) to a reduced (fluorescent, red) form. The alamarBlue® reaction allows the quantification of cell proliferation and examination of the metabolic activity of viable cells. Test substances were examined for activity on the proliferation of human or murine tumor cell lines at assay concentrations from 0.01 to 100 µM.
Background: Alamar Blue is a resazurin reagent that responds to reducing activity.

Series [2] has as its target T5, Gonadotrophin-releasing hormone receptors (GnRH, LH-RH)R (Homo sapiens, UniProt P30968).
T5 construct: expressed in transfected cells; host or cells: Chem-1 cells
T5 sequence (P30968 1-328): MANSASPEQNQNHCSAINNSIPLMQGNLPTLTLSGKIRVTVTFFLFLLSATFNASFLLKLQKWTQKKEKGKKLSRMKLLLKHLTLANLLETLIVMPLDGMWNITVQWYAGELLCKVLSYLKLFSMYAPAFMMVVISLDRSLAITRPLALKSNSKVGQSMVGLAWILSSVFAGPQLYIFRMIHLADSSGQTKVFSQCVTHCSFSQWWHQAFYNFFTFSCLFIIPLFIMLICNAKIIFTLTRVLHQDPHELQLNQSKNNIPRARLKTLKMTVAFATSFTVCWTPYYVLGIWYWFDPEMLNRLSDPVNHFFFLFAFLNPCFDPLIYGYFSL
Put plainly: GnRH radioligand binding assay. The note with it: GnRH radioligand binding, 10 µM; read-out: % Inhibition at 10 µM. The text has this: Gonadotrophin-releasing hormone receptors (GnRH, LH-RH)R are a family of G protein-coupled receptors for GnRH, which promotes the secretion of luteinizing hormone (LH) and follicle-stimulating hormone (FSH). The activation of this receptor promotes, through estrogen receptors (ER) located in the cytosol, an increase in gene transcription and activation of tumor suppressor genes, DNA repair, cell division and cell proliferation. GnRH agonists are useful in breast, prostate and ovarian cancer, endometriosis, melanoma, rheumatoid arthritis and Alzheimer's disease. Table 17 presents the results from radioligand binding studies for GnRH for selected compounds using human recombinant Chem-1 cells (Halmos G, Schally AV, Pinski J, Vadillo-Buenfill M, Groot K. Down regulation of pituitary receptors for luteinizing hormone-releasing hormone (LH-RH) in rats by LH-RH antagonist Cetrorelix. Prco Natl Acad Sci USA 1996;93(6):2398-2402). The specific and non specific ligands used were [^125l] [D-Trp^6]-LH-RH (0.05 nM) and [D-Trp^6]-LH-RH ([…]) and after 60 min of incubation at 25°C in a 50 mM HEPES, pH 7.5, 5 mM MgCl2, 1 mM CaCl2, and 0.2% BSA the activity was measured by radioligand binding. Table 17. GnRH radioligand binding assay

The subject of series [3] is mice. Put plainly: Hot plate test (analgesic activity). Format: in vivo. The note with it: 10 and 30 mg/kg i.p. On the procedure: The hot plate test was used as an animal model of thermally-induced pain. The inhibitory activity measured on the time licking and biting induced by temperature (30 sec max at 55°C) indicates analgesic effect. […] Table 13. Analgesic activity of example 1 in the hot plate test

For a further series, the system named is tumor brain U-87 MG. As to the kind of experiment: Tumor cell proliferation assay (alamarBlue). Format: cell-based. The note with it: Homo sapiens; tumor brain U-87 MG; read-out: IC50. On the procedure:
as §2

A further series relates to tumor breast MCF-7. As to the kind of experiment: Tumor cell proliferation assay (alamarBlue). Format: cell-based. The note with it: Homo sapiens, MCF7; tumor breast MCF-7; read-out: IC50. On the procedure:
as §2

The test system of the next series is tumor leukaemia K562. As to the kind of experiment: Tumor cell proliferation assay (alamarBlue). Format: cell-based. Conditions: Homo sapiens; tumor leukaemia K562; read-out: IC50. As for the experimental part: as §2
Another series concerns tumor lung A549. As to the kind of experiment: Tumor cell proliferation assay (alamarBlue). Format: cell-based. The note with it: Homo sapiens; tumor lung A549; read-out: IC50. As for the experimental part:
as §2

The test system of a further series is tumor liver Hep 3B. Put plainly: Tumor cell proliferation assay (alamarBlue). Format: cell-based. Conditions: Homo sapiens, Hep3B; tumor liver Hep 3B; read-out: IC50. As for the experimental part: as §2
The next series relates to tumor liver HepG2. As to the kind of experiment: Tumor cell proliferation assay (alamarBlue). Format: cell-based. Conditions: Homo sapiens; tumor liver HepG2; read-out: IC50. As for the experimental part:
as §2

In a further series the test system is tumor breast MDA-MB-231. As to the kind of experiment: Tumor cell proliferation assay (alamarBlue). Conditions: Homo sapiens; tumor breast MDA-MB-231; read-out: IC50. Format: cell-based. As for the experimental part: as §2
In a further series the test system is tumor breast T-47D. As to the kind of experiment: Tumor cell proliferation assay (alamarBlue). Format: cell-based. The note with it: Homo sapiens, T47D; tumor breast T-47D; read-out: IC50. On the procedure:
as §2

In the next series the test system is tumor colon HCT-116. As to the kind of experiment: Tumor cell proliferation assay (alamarBlue). Format: cell-based. Conditions: Homo sapiens; tumor colon HCT-116; read-out: IC50. As for the experimental part: as §2
The next series deals with tumor prostate LNCaP-FGC. Put plainly: Tumor cell proliferation assay (alamarBlue). Format: cell-based. The note with it: Homo sapiens; tumor prostate LNCaP-FGC; read-out: IC50. As for the experimental part: as §2
For the next series, the system named is tumor ovary OVCAR-3. Put plainly: Tumor cell proliferation assay (alamarBlue). Format: cell-based. Conditions: Homo sapiens; tumor ovary OVCAR-3; read-out: IC50. On the procedure: as §2
The test system of series [4] is mice. Put plainly: Formalin test (antinociceptive activity). Format: in vivo. On the procedure: The chemical irritant formalin test is used as a chronic pain model in animals. The s.c. administration of formalin to the paw of a mouse produces a biphasic nociceptive behavioral response, an early response (0-5 min after injection) and a late response (20-30 min after injection) (Hunskaar, S., Fasmer, O.B., Hole, K. Formalin test in mice, a useful technique for evaluating mild analgesics. J Neurosci Methods, 1985 ;14(1):69-76).
Aspirine and paracetamol are included as external active references in early and late response. Table 12. Early and late response inhibition in the formalin test.

The subject of series [5] is mice. The note with it: i.p. in mice, comparative antineoplastic agents; cited from earlier work.

Structures can show the parent of a compound that is named as a salt.

T2 sequence (P23975 whole entry): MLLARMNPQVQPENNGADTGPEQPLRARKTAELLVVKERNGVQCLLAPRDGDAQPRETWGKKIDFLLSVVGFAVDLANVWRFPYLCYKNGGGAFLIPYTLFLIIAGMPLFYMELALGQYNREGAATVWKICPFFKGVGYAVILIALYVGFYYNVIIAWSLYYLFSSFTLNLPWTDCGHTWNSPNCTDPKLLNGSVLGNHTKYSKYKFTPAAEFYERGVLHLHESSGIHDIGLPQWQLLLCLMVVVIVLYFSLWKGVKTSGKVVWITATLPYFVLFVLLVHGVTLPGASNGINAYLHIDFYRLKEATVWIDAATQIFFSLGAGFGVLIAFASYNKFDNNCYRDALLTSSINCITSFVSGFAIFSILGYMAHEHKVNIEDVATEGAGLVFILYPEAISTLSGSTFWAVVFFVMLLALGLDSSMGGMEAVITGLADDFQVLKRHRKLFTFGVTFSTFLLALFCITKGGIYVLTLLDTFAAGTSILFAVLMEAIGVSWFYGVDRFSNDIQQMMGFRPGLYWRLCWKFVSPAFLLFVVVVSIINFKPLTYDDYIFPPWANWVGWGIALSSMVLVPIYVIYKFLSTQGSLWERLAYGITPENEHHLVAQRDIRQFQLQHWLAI
T1 sequence (P31645 whole entry): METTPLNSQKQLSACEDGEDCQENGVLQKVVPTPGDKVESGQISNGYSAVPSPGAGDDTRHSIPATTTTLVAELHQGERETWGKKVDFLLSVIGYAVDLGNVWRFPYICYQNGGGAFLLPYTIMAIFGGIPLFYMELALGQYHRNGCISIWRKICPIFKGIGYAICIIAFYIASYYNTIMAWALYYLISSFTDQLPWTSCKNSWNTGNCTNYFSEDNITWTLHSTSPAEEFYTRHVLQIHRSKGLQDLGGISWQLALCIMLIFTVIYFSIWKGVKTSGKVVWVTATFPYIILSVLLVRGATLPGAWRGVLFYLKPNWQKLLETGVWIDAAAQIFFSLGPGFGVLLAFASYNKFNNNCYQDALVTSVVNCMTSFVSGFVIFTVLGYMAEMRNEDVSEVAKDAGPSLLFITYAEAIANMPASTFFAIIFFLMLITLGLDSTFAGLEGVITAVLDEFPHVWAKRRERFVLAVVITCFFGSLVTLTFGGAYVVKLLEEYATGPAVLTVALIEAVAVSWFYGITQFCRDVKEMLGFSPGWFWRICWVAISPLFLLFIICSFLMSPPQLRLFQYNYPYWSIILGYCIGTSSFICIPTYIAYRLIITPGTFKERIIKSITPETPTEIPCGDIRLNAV
T4 sequence (P12931 whole entry): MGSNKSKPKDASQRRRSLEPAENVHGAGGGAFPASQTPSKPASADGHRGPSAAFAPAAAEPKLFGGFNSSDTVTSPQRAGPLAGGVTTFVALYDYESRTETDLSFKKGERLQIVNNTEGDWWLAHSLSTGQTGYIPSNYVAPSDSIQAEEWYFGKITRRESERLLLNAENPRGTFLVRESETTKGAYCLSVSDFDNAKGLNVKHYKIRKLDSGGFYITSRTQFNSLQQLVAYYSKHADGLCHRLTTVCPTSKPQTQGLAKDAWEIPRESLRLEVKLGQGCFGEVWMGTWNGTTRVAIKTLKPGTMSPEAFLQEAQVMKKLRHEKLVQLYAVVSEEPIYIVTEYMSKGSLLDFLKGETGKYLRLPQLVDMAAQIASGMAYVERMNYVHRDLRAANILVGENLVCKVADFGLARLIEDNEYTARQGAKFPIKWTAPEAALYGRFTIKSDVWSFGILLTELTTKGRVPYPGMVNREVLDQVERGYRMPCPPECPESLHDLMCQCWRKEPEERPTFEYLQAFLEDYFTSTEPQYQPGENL
T3 sequence (P28223 whole entry): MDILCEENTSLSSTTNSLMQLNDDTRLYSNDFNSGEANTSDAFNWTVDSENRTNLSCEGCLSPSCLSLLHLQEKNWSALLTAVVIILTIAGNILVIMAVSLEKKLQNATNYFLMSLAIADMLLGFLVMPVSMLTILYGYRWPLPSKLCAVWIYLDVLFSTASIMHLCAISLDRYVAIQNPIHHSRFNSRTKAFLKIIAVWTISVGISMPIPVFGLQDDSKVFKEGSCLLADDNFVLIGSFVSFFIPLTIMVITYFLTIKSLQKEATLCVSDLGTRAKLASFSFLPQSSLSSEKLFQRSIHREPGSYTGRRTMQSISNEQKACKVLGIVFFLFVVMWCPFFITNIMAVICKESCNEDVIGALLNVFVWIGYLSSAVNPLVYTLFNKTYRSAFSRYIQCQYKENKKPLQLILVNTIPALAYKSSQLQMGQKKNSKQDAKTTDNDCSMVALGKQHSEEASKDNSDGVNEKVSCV

As to `C=CCc1ccc(OCC)c(-c2cc(CC=C)ccc2OC(CCNC)c2ccccc2)c1` (stereo not drawn) [Example 3, 5,5'-Diallyl-2-ethoxy-2'-[3-(methylamino)-1-phenylpropoxylbiphenyl hydrochloride], in the series with 5-HT Uptake, the “% Inhibition (5.0 µM) 5-HT Uptake” value was 52%. Besides, the inhibition at 5 µM on SERT is 73%; at NET it was 87%; on 5-HT2A receptor, 86%. In addition, in the series with NE Uptake, the “% Inhibition (5.0 µM) NE Uptake” value is on record as 85%.
Consider `C=CCc1ccc(OC)c(-c2cc(CC=C)ccc2OC(CCNC)c2ccccc2)c1.Cl` (stereo not drawn) [Example 2, 5,5'-Diallyl-2-methoxy-2'-[3-(methylamino)-1-phenylpropoxy]biphenyl hydrochloride], for which, in series [1], the MTD was 50 mg/kg. The inhibition at 10 µM at Src came to 55%; in series [2], 33%. Moreover, the IC50 stood at 2300 nM with tumor melanoma B16-FO; 2200 nM in the series with tumor brain U-87 MG; 2600 nM in the series on tumor breast MCF-7; 4200 nM with tumor leukaemia K562; 1300 nM in the series with tumor lung A549; 3200 nM in the series with tumor liver Hep 3B. Besides, the IC50 amounted to 3600 nM in the series with tumor liver HepG2; 2100 nM with tumor breast MDA-MB-231; 12000 nM in the series with tumor breast T-47D; 2100 nM with tumor colon HCT-116; 1800 nM in the series with tumor prostate LNCaP-FGC; 2300 nM in the series on tumor ovary OVCAR-3. For the same compound, the “antinociceptive activity in the hot plate test” value in the series with mice [3] is reported as “Dose-dependent antinociceptive activity”. In the series on mice [4] (30 mg/kg i.p, early and late phases, potency similar to morphine 10 mg/kg i.p.), the “antinociceptive activity in the formalin test” value is given as “to a lesser extent”. Also, the “antinociceptive activity in the formalin model” value in the series on mice [4] (10 and 30 mg/kg i.p, late phase) is recorded as “dose-dependent antinociceptive activity”. Further, in the series with mice [4] (formalin test, dose 30 mg/Kg i.p., early response 0-5 min), the “Early Response” value was “inactive”. The “Late Response” value in the series with mice [4] (formalin test, dose 30 mg/Kg i.p., late response 20-30 min) was “active”.
Take `CC(=O)O[C@H]1C(=O)[C@@]2(C)[C@H]([C@H](OC(=O)c3ccccc3)[C@]3(O)C[C@H](OC(=O)[C@H](O)[C@@H](NC(=O)c4ccccc4)c4ccccc4)C(C)=C1C3(C)C)[C@]1(OC(C)=O)CO[C@@H]1C[C@@H]2O` [placlitaxel]: in the series on mice [5], the MTD is 20 to 50 mg/kg.
With `N.N.[Cl][Pt][Cl]` [cisplatin], the MTD in the series with mice [5] is 4 mg/kg.

In general, inhibition refers to the relative decrease from the control value, in per cent. As usually defined, the IC50 is the concentration needed to halve the response being measured.
